The structures appear in SMILES notation. Values after ≈ are worked out from the molar mass of the structure shown. Where two headings read alike, the source gives them in different places.

We go through 7 molecules from paper PMC5840523, “Assessment of a pretomanid analogue library for African trypanosomiasis: Hit-to-lead studies on 6-substituted 2-nitro-6,7-dihydro-5H-imidazo[2,1-b][1,3]thiazine 8-oxides” (Bioorganic & Medicinal Chemistry Letters, 2018).

Data set [1] relates to T. b. brucei 427. Nature of the data set: T. b. brucei 427 growth inhibition (Scynexis). In kind it is cell-based, Trypanosoma brucei brucei. To be noted: for Selectivity Index: L929 vs T. b. brucei; for IC50: Trypanosoma brucei, growth inhibition of T. b. brucei 427, mean ± SD.
In another data set the test system is L929 mouse fibroblasts. The data set can be described thus: Cytotoxicity toward L929 mouse fibroblasts (Scynexis). The format is cell-based.
The next data set relates to MDCK-MDR1 cell monolayer. Particulars: dog, MDCK-MDR1, 1 h, 3 µM.
The test system of data set [2] is T. b. brucei 427. Nature of the data set: T. b. brucei growth inhibition (University of Antwerp). Particulars: Trypanosoma brucei, T. b. brucei 427; mean of 2 to 5 determinations; read-out: IC50 T. b. bruc. The format is cell-based, Trypanosoma brucei brucei.
The subject of a further data set is T. b. rhodesiense. The data set can be described thus: T. b. rhodesiense growth inhibition (University of Antwerp). In kind it is cell-based, Trypanosoma brucei rhodesiense. Particulars: Trypanosoma brucei, RHODESIENSE, mean of 2 to 5 determinations; read-out: IC50 T. b. rhod.
In a further data set the test system is Trypanosoma cruzi. The data set can be described thus: T. cruzi growth inhibition (University of Antwerp). In kind it is cell-based. Particulars: Trypanosoma cruzi, mean of 2 to 5 determinations.
In the next data set the test system is Leishmania infantum. The data set can be described thus: L. infantum growth inhibition (University of Antwerp). In kind it is cell-based. To be noted: Leishmania infantum, mean of 2 to 5 determinations.
In data set [3] the test system is human lung fibroblasts (MRC-5 cells). The data set can be described thus: Cytotoxicity toward MRC-5 cells (University of Antwerp). Particulars: Homo sapiens, MRC5, cytotoxicity toward human lung fibroblasts. The format is cell-based.
A short description of data set [4]: Human liver microsomal stability. The format is in vitro ADME. Particulars: pooled human liver microsomes. Background: Liver microsomes are a subcellular fraction often used to study metabolism.
A short description of data set [5]: Mouse liver microsomal stability. In kind it is in vitro ADME. To be noted: CD-1 mouse liver microsomes.
A further data set can be described thus: in vitro. Particulars: dog, MDCK-MDR1, Permeability Papp.
The nature of the next data set: Mouse liver S9 stability. The format is in vitro ADME. To be noted: CD-1, mouse, mouse liver S9 subcellular fraction, half-life in mouse liver S9 fraction; read-out: Mouse S9 t1/2.
Data set [6] is described as follows: Kinetic aqueous solubility in pH 7.4 PBS. The format is physicochemical. The text has this:
Table 1 Inhibitory potency, metabolic stability, aqueous solubility, and MDCK-MDR1 cell permeability for 15 screening hits against T. b. brucei. | column: Solubility ^c / (µg/mL)

Data set [7] is described as follows: Mouse pharmacokinetics (plasma, whole blood, brain). The format is in vivo, male CD-1 mice. Particulars: male, CD-1, mouse; for bioavailability: po, from dose normalised AUClast values, read-out: F (oral bioavailability); for Vd: read-out: Vdss; for half-life: read-out: t1/2 (converted). Here is the method: In order to determine the suitability of the more permeable hits for in vivo efficacy studies, we first measured their aqueous solubilities, and their tendencies to metabolise, following a 1 h incubation with CD-1 mouse liver S9 subcellular fractions.[14] […] This led us to probe their in vivo pharmacokinetic (PK) profiles in mice, examining concentration levels in plasma, whole blood and brain tissue following both intravenous and oral administration (Table 2; for further experimental details, see the Supporting Information). […]
Mouse Pharmacokinetics. The in-life portion of PK testing was carried out by ViviSource Laboratories, Inc., Mass achusetts, USA, and PK samples were anal ysed by Sc ynexis, Inc.
Test compounds (9, 12, 17, and 19) w er e each administered as single doses to groups of 10 male CD-1 mice by bolus intravenous injection or oral gavage. Intravenous dosing (at a nominal dose of 2 mg/kg) emplo yed a solution vehicle comprising either 20% EtOH, 20% propylene gl ycol, and 30% PEG -400 in normal saline (for powders 9, 17, and 19) or 0.5% (hydrox yprop yl)meth ylcellulose, 0.4% Tween 80, 0.5% benz yl alcohol, and 20% DMSO i n deionised water (for oil 12). […]
in 0.5% methylcellulose, 0.08% Tween 80 in water ( ex cept fo r oil 12, where the formulation additionally contained 20% DMSO). […]

Where [8] appears, read: brain, intravenous, corrected doses 0.5, 1.1, 2.9, 2.0 mg/kg for 9, 12, 17, 19.
Where [9] appears, read: brain, oral, corrected doses 62, 50, 78, 49 mg/kg for 9, 12, 17, 19.
The mark [10] stands for this setting: plasma, intravenous, corrected doses 0.5, 1.1, 2.9, 2.0 mg/kg for 9, 12, 17, 19.
Where [11] appears, read: plasma, oral, corrected doses 62, 50, 78, 49 mg/kg for 9, 12, 17, 19.
Setting [12] is: whole blood, intravenous, corrected doses 0.5, 1.1, 2.9, 2.0 mg/kg for 9, 12, 17, 19.
[13] abbreviates: whole blood, oral, corrected doses 62, 50, 78, 49 mg/kg for 9, 12, 17, 19.

Usually IC50 stands for the concentration that gives 50% inhibition. On to `O=[N+]([O-])c1cn2c(n1)OC[C@@H](OCC#Cc1ccc(-c3ccc(C(F)(F)F)cc3)cn1)C2` [Compound 16], for which, in the data set on T. b. brucei 427 [1], the “Selectivity Index” value is listed as more than 19 and half-maximal inhibition (IC50) required 0.53 ± 0.23 µg/mL (≈ 1.19 µM). Moreover, in the data set with L929 mouse fibroblasts, the half-inhibitory concentration (IC50) is more than 10 µg/mL. In the data set on MDCK-MDR1 cell monolayer, the “absolute AQ” value was not below 0.3.

As to `O=[N+]([O-])c1cn2c(n1)S(=O)(=O)CC(OCc1ccc(OCc3ccccc3)cc1)C2` (stereo not shown) [Compound 10], the “Selectivity Index” value in the data set on T. b. brucei 427 [1] is more than 303. The IC50 in the data set on T. b. brucei 427 [1] was 0.033 ± 0.018 µg/mL (≈ 0.0768 µM); in the data set on L929 mouse fibroblasts it was more than 10 µg/mL; in the data set on T. b. brucei 427 [2] it was 0.097 µM; in the data set on T. b. rhodesiense, 0.027 µM; in the data set on Trypanosoma cruzi, 0.35 µM; in the data set with Leishmania infantum it was 7.3 µM. The concentration for half-maximal inhibition (IC50) in data set [3] is more than 64 µM. The “absolute AQ” value in the data set on MDCK-MDR1 cell monolayer is not below 0.3.

One may read the share remaining as what is left of the initial amount, in per cent. A high value points to greater stability. With `O=[N+]([O-])c1cn2c(n1)[S@@+]([O-])C[C@H](OCc1ccc(OC(F)(F)F)cc1)C2` [Compound 26], the IC50 was more than 5 µg/mL in the data set with T. b. brucei 427 [1]; more than 10 µg/mL in the data set with L929 mouse fibroblasts; 34 µM in the data set on T. b. brucei 427 [2]; 7.3 µM in the data set with T. b. rhodesiense; 6.5 µM with Trypanosoma cruzi; 41 µM with Leishmania infantum. In data set [3], this molecule returned a concentration for half-maximal inhibition (IC50) of more than 64 µM. Besides, the amount remaining at 1 h in data set [4] was 91%; in data set [5], 26%.

One may read the Papp as the rate of passage across a membrane or cell layer, normalised by area and donor concentration. A higher Papp goes with fast passage. As for `O=[N+]([O-])c1cn2c(n1)OCC(COc1ccc(-c3ccc(C(F)(F)F)cc3)nc1)C2` (stereo not shown) [Compound 14], in the data set with T. b. brucei 427 [1], the “Selectivity Index” value was more than 36 and the concentration for half-maximal inhibition (IC50) came to 0.28 ± 0.11 µg/mL (≈ 0.666 µM). The molecule further had a half-maximal inhibitory concentration (IC50) with L929 mouse fibroblasts of more than 10 µg/mL. In the data set on MDCK-MDR1 cell monolayer, the “Permeability Papp” value was 11.7 ×10⁻⁶ cm/s and the “absolute AQ” value is on record as not below 0.3. Moreover, the apparent permeability coefficient (Papp) at 1 h, 3 µM in “in vitro” was less than 15 ×10⁻⁶ cm/s.

On to `O=[N+]([O-])c1cn2c(n1)OCC(COc1ccc(-c3ccc(OC(F)(F)F)cc3)nc1)C2` (stereo not shown) [Compound 18], for which, in the data set with T. b. brucei 427 [1], the “Selectivity Index” value was more than 12 and the concentration for half-maximal inhibition (IC50) came to 0.83 ± 0.41 µg/mL (≈ 1.9 µM). The IC50 with L929 mouse fibroblasts was more than 10 µg/mL. Besides, the “absolute AQ” value in the data set on MDCK-MDR1 cell monolayer was not below 0.3.

On to `O=[N+]([O-])c1cn2c(n1)OC[C@@H](OCCCc1ccc(-c3ccc(Oc4ccc(C(F)(F)F)cc4)cc3)cc1)C2` [Compound 13], for which, in the data set with T. b. brucei 427 [1], the “Selectivity Index” value is more than 43 and inhibition was half-maximal at 0.23 ± 0.04 µg/mL (≈ 0.426 µM) (IC50). This molecule registered a concentration for half-maximal inhibition (IC50) with L929 mouse fibroblasts of more than 10 µg/mL. In the data set on MDCK-MDR1 cell monolayer, the “Permeability Papp” value was less than 0.08 ×10⁻⁶ cm/s. Also, in the data set “in vitro”, the Papp at 1 h, 3 µM was less than 0.08 ×10⁻⁶ cm/s.

As a reminder, the solubility is how much of the substance goes into solution per volume. A high value points to much dissolved substance. Broadly, the bioavailability is the share of a dose that reaches the circulation, judged against a reference dose that is usually intravenous. One may read the AUC(0-t) as exposure summed from dosing to a finite time, without extrapolation to infinity. Low readings indicate less exposure, high ones more exposure. For orientation: clearance means the rate of elimination divided by the concentration. The low end stands for a low capacity for elimination, the high end for a high capacity for elimination. By Cmax is commonly meant the maximum level reached in the sampled fluid or tissue. One may read the Tmax as the time at which the peak concentration occurs. Take `O=[N+]([O-])c1cn2c(n1)S(=O)(=O)CC(OCc1ccc(OC(F)(F)F)cc1)C2` (stereo not shown) [Compound 19]: the “Selectivity Index” value in the data set on T. b. brucei 427 [1] is on record as more than 11. For the same molecule, the “weaker potency vs 12 (fold)” value in the data set with T. b. brucei 427 [1] (T. b. brucei) is given as 5.6 fold. The IC50 in the data set with T. b. brucei 427 [1] is 0.9 ± 0.4 µg/mL (≈ 2.21 µM); in the data set on L929 mouse fibroblasts it was more than 10 µg/mL; in the data set on T. b. brucei 427 [2], 1.1 µM; in the data set on T. b. rhodesiense it was 0.94 µM; with Trypanosoma cruzi it was 1.6 µM; with Leishmania infantum it was more than 64 µM. In data set [3], this molecule displayed an IC50 of more than 64 µM. The half-life in the data set “Mouse liver S9 stability” is 4.97 h; in data set [7] (setting [8]), 14 h; in data set [7] (setting [9]), 3 h; in data set [7] (setting [10]) it was 2.5 h; in data set [7] (setting [11]) it was 2.7 h; in data set [7] (setting [12]) it was 5.9 h. Also, the half-life in [7] (setting [13]) was 3.3 h. The same molecule gave a solubility in data set [6] of 10 µg/mL (≈ 24.6 µM). Moreover, the bioavailability in [7] (brain) is 43%; in data set [7] (plasma), 42%; in data set [7] (whole blood) it was 37%. Also, the area under the curve AUC(0-t) in [7] (setting [8]) was found to be 1770 ng·h/mL; in [7] (setting [9]) it was 18800 ng·h/mL; in [7] (setting [10]), 1800 ng·h/mL; in data set [7] (setting [11]), 18700 ng·h/mL; in [7] (setting [12]), 2600 ng·h/mL; in [7] (setting [13]), 23700 ng·h/mL. Moreover, the clearance in [7] (setting [8]) is 8.5 mL/min/kg; in data set [7] (setting [10]), 16.7 mL/min/kg; in [7] (setting [12]) it was 11.5 mL/min/kg. The Vd in data set [7] (setting [8]) was determined as 9.1 L/kg; in data set [7] (setting [10]), 3.6 L/kg; in [7] (setting [12]), 2.8 L/kg. The Cmax was determined as 2400 ng/mL in data set [7] (setting [9]), 2300 ng/mL in data set [7] (setting [11]) and 3000 ng/mL in [7] (setting [13]). Also, the figures for the time of peak concentration (Tmax) in [7] (setting [9]), in data set [7] (setting [11]) and in data set [7] (setting [13]) were 4 h, 2 h and 2 h, respectively. Also, the Papp at 1 h, 3 µM in the data set “in vitro” worked out at 62.4 ×10⁻⁶ cm/s.
